Patent publication US9624170B2, “4-(piperrazin-1-yl)-pyrrolidin-2-one compounds as monoacylglycerol lipase (MAGL) inhibitors” (TAKEDA PHARMACEUTICAL COMPANY LIMITED, priority 2013, dated 2017)

Target: T1, human MAGL (His-hMAGL) (Homo sapiens, UniProt Q99685)
T1 construct: made in house; host or cells: Escherichia coli BL21(DE3)
T1 sequence (Q99685 1-303): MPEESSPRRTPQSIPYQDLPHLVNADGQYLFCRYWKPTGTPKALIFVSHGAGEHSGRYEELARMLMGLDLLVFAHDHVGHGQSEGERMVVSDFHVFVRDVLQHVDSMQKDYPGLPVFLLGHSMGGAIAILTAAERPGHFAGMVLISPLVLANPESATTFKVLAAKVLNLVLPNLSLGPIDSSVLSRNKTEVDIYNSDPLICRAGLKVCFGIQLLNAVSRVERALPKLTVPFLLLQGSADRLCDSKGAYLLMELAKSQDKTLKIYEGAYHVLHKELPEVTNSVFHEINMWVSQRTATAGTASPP
Assay: Measurement of MAGL inhibitory activity by mass spectrometry
Type: biochemical
Conditions: MAGL inhibitory rate, test compound 10 μM, His-hMAGL, substrate 2-arachidonylglycerol, RapidFire-mass spectrometry
Outline: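 His-tagged human MAGL was reacted with 150 μM 2-arachidonylglycerol substrate (stock, added by 5 μL) for 10 min at room temperature, then stopped with formic acid. Arachidonic acid product was quantified by RapidFire–triple-quadrupole MS in negative SRM mode, corrected by arachidonic acid-d8, and converted to percent inhibition.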

Row | SMILES | inhibition at 10 µM [%]
1 | O=C(c1nccs1)N1CCN(C2CC(=O)N(c3ccc4c(c3)CCN4C(=O)Cc3ccc(Cl)cc3)C2)CC1 (centres unmarked) [Example 393, 1-(1-((4-chlorophenyl)acetyl)-2,3-dihydro-1H-indol-5-yl)-4-(4-(1,3-thiazol-2-ylcarbonyl)piperazin-1-yl)pyrrolidin-2-one] | 93
2 | O=C(c1nccs1)N1CCN(C2CC(=O)N(c3ccc4c(c3)CCN4C(=O)Cc3cccc(Cl)c3)C2)CC1 (centres unmarked) [Example 394, 1-(1-((3-Chlorophenyl)acetyl)-2,3-dihydro-1H-indol-5-yl)-4-(4-(1,3-thiazol-2-ylcarbonyl)piperazin-1-yl)pyrrolidin-2-one] | 98
3 | O=C(c1nccs1)N1CCN(C2CC(=O)N(c3ccc4c(c3)CCN4C(=O)Cc3ccccc3Cl)C2)CC1 (centres unmarked) [Example 395, 1-(1-((2-chlorophenyl)acetyl)-2,3-dihydro-1H-indol-5-yl)-4-(4-(1,3-thiazol-2-ylcarbonyl)piperazin-1-yl)pyrrolidin-2-one] | 102
4 | O=C(c1nccs1)N1CCN(C2CC(=O)N(c3ccc4c(c3)CCN4C(=O)c3ccccc3)C2)CC1 (centres unmarked) [Example 396, 1-(1-benzoyl-2,3-dihydro-1H-indol-5-yl)-4-(4-(1,3-thiazol-2-ylcarbonyl)piperazin-1-yl)pyrrolidin-2-one] | 97
5 | CC(C)CC(=O)N1CCc2cc(N3CC(N4CCN(C(=O)c5nccs5)CC4)CC3=O)ccc21 (centres unmarked) [Example 397, 1-(1-(3-methylbutanoyl)-2,3-dihydro-1H-indol-5-yl)-4-(4-(1,3-thiazol-2-ylcarbonyl)piperazin-1-yl)pyrrolidin-2-one] | 101
6 | O=C(c1nccs1)N1CCN(C2CC(=O)N(c3ccc4c(c3)CCN4C(=O)CC3CC3)C2)CC1 (centres unmarked) [Example 398, 1-(1-(cyclopropylacetyl)-2,3-dihydro-1H-indol-5-yl)-4-(4-(1,3-thiazol-2-ylcarbonyl)piperazin-1-yl)pyrrolidin-2-one] | 100
7 | O=C(c1nccs1)N1CCN(C2CC(=O)N(c3ccc4c(c3)CCN4C(=O)CC(F)(F)F)C2)CC1 (centres unmarked) [Example 399, 4-(4-(1,3-thiazol-2-ylcarbonyl)piperazin-1-yl)-1-(1-(3,3,3-trifluoropropanoyl)-2,3-dihydro-1H-indol-5-yl)pyrrolidin-2-one] | 95
8 | O=C(c1nccs1)N1CCN(C2CC(=O)N(c3ccc4c(c3)CCN4C(=O)C3CCOCC3)C2)CC1 (centres unmarked) [Example 400, 1-(1-(tetrahydro-2H-pyran-4-ylcarbonyl)-2,3-dihydro-1H-indol-5-yl)-4-(4-(1,3-thiazol-2-ylcarbonyl)piperazin-1-yl)pyrrolidin-2-one] | 96
9 | O=C(c1nccs1)N1CCN(C2CC(=O)N(c3ccc4c(c3)CCN4C(=O)CC3CCOCC3)C2)CC1 (centres unmarked) [Example 401, 1-(1-(tetrahydro-2H-pyran-4-ylacetyl)-2,3-dihydro-1H-indol-5-yl)-4-(4-(1,3-thiazol-2-ylcarbonyl)piperazin-1-yl)pyrrolidin-2-one] | 94
10 | O=C(c1nccs1)N1CCN([C@@H]2CC(=O)N(c3cc4ccn(-c5ccc(C(F)(F)F)cn5)c4cn3)C2)CC1 [Example 402, (4R)-4-(4-(1,3-thiazol-2-ylcarbonyl)piperazin-1-yl)-1-(1-(5-(trifluoromethyl)pyridin-2-yl)-1H-pyrrolo[2,3-c]pyridin-5-yl)pyrrolidin-2-one] | 94
11 | O=C1CC(N2CCN(c3ncccn3)CC2)CN1c1cc(F)cc(Br)c1 (centres unmarked) [Example 403, 1-(3-Bromo-5-fluorophenyl)-4-(4-(pyrimidin-2-yl)piperazin-1-yl)pyrrolidin-2-one] | 91
12 | Cc1ncccc1-c1cc(N2CC(N3CCN(c4ncccn4)CC3)CC2=O)ccc1F (centres unmarked) [Example 404, 1-(4-fluoro-3-(2-methylpyridin-3-yl)phenyl)-4-(4-(pyrimidin-2-yl)piperazin-1-yl)pyrrolidin-2-one] | 96
13 | O=C(c1cscn1)N1CCN([C@@H]2CC(=O)N(c3ccc4c(c3)CCN4c3ccc(C(F)(F)F)cc3)C2)CC1 [Example 405, (4R)-4-(4-(1,3-Thiazol-4-ylcarbonyl)piperazin-1-yl)-1-(1-(4-(trifluoromethyl)phenyl)-2,3-dihydro-1H-indol-5-yl)pyrrolidin-2-one] | 103
14 | Cc1ncccc1-c1cc(F)cc(N2CC(N3CCN(c4ncccn4)CC3)CC2=O)c1 (centres unmarked) [Example 406, 1-(3-Fluoro-5-(2-methylpyridin-3-yl)phenyl)-4-(4-(pyrimidin-2-yl)piperazin-1-yl)pyrrolidin-2-one] | 98
15 | COc1cnc(N2CCc3cc(N4C[C@H](N5CCN(C(=O)c6nccs6)CC5)CC4=O)ccc32)nc1 [Example 407, (4R)-1-(1-(5-methoxypyrimidin-2-yl)-2,3-dihydro-1H-indol-5-yl)-4-(4-(1,3-thiazol-2-ylcarbonyl)piperazin-1-yl)pyrrolidin-2-one] | 104
16 | CC(C)(C)OC(=O)N1CCc2cc(N3C[C@H](N4CCN(C(=O)c5cscn5)CC4)CC3=O)ccc21 [Example 408, tert-butyl 5-((4R)-2-oxo-4-(4-(1,3-thiazol-4-ylcarbonyl)piperazin-1-yl)pyrrolidin-1-yl)indoline-1-carboxylate] | 103
17 | CC(C)(C)CC(=O)N1CCc2cc(N3CC(N4CCN(c5ncccn5)CC4)CC3=O)ccc21 (centres unmarked) [Example 409, 1-(1-(3,3-dimethylbutanoyl)-2,3-dihydro-1H-indol-5-yl)-4-(4-(pyrimidin-2-yl)piperazin-1-yl)pyrrolidin-2-one] | 94
18 | COc1ccc(CC(=O)N2CCc3cc(N4CC(N5CCN(c6ncccn6)CC5)CC4=O)ccc32)cn1 (centres unmarked) [Example 410, 1-(1-((6-methoxypyridin-3-yl)acetyl)-2,3-dihydro-1H-indol-5-yl)-4-(4-(pyrimidin-2-yl)piperazin-1-yl)pyrrolidin-2-one] | 80
19 | O=C1CC(N2CCN(c3ncccn3)CC2)CN1c1ccc2c(c1)CCN2C(=O)Cc1ccc(F)cc1 (centres unmarked) [Example 413, 1-(1-((4-fluorophenyl)acetyl)-2,3-dihydro-1H-indol-5-yl)-4-(4-(pyrimidin-2-yl)piperazin-1-yl)pyrrolidin-2-one] | 94
20 | CC(C)(C)CC(=O)N1CCc2cc(N3C[C@H](N4CCN(C(=O)c5cscn5)CC4)CC3=O)ccc21 [Example 414, (4R)-1-(1-(3,3-dimethylbutanoyl)-2,3-dihydro-1H-indol-5-yl)-4-(4-(1,3-thiazol-4-ylcarbonyl)piperazin-1-yl)pyrrolidin-2-one] | 100
21 | O=C(c1cscn1)N1CCN([C@@H]2CC(=O)N(c3ccc4c(c3)CCN4C(=O)Cc3ccc(Cl)cc3)C2)CC1 [Example 415, (4R)-1-(1-((4-chlorophenyl)acetyl)-2,3-dihydro-1H-indol-5-yl)-4-(4-(1,3-thiazol-4-ylcarbonyl)piperazin-1-yl)pyrrolidin-2-one] | 97
22 | O=C(c1cscn1)N1CCN([C@@H]2CC(=O)N(c3ccc4c(c3)CCN4C(=O)Cc3cccc(Cl)c3)C2)CC1 [Example 416, (4R)-1-(1-((3-chlorophenyl)acetyl)-2,3-dihydro-1H-indol-5-yl)-4-(4-(1,3-thiazol-4-ylcarbonyl)piperazin-1-yl)pyrrolidin-2-one] | 99
23 | O=C(c1cscn1)N1CCN([C@@H]2CC(=O)N(c3ccc4c(ccn4-c4ccc(C(F)(F)F)cc4)c3)C2)CC1 [Example 418, (4R)-4-(4-(1,3-Thiazol-4-ylcarbonyl)piperazin-1-yl)-1-(1-(4-(trifluoromethyl)phenyl)-1H-indol-5-yl)pyrrolidin-2-one] | 96
24 | O=C(c1cscn1)N1CCN([C@@H]2CC(=O)N(c3ccc4c(ccn4-c4ccc(C(F)(F)F)cn4)c3)C2)CC1 [Example 419, (4R)-4-(4-(1,3-Thiazol-4-ylcarbonyl)piperazin-1-yl)-1-(1-(5-(trifluoromethyl)pyridin-2-yl)-1H-indol-5-yl)pyrrolidin-2-one] | 96
25 | O=C(c1cscn1)N1CCN([C@@H]2CC(=O)N(c3ccc4c(c3)CCN4c3ccc(C(F)(F)F)cn3)C2)CC1 [Example 420, (4R)-4-(4-(1,3-Thiazol-4-ylcarbonyl)piperazin-1-yl)-1-(1-(5-(trifluoromethyl)pyridin-2-yl)-2,3-dihydro-1H-indol-5-yl)pyrrolidin-2-one] | 89
26 | O=C(c1cscn1)N1CCN([C@@H]2CC(=O)N(c3ccc4c(ccn4-c4cccc(C(F)(F)F)c4)c3)C2)CC1 [Example 421, (4R)-4-(4-(1,3-thiazol-4-ylcarbonyl)piperazin-1-yl)-1-(1-(3-(trifluoromethyl)phenyl)-1H-indol-5-yl)pyrrolidin-2-one] | 100
27 | O=C(c1cscn1)N1CCN([C@@H]2CC(=O)N(c3ccc4c(ccn4-c4cccc(F)c4)c3)C2)CC1 [Example 422, (4R)-1-(1-(3-fluorophenyl)-1H-indol-5-yl)-4-(4-(1,3-thiazol-4-ylcarbonyl)piperazin-1-yl)pyrrolidin-2-one] | 99
28 | O=C(c1cscn1)N1CCN([C@@H]2CC(=O)N(c3ccc4c(ccn4-c4ccc(Cl)cc4)c3)C2)CC1 [Example 423, (4R)-1-(1-(4-Chlorophenyl)-1H-indol-5-yl)-4-(4-(1,3-thiazol-4-ylcarbonyl)piperazin-1-yl)pyrrolidin-2-one] | 98
29 | O=C(c1cscn1)N1CCN([C@@H]2CC(=O)N(c3ccc4c(ccn4-c4cc(C(F)(F)F)ccn4)c3)C2)CC1 [Example 425, (4R)-4-(4-(1,3-Thiazol-4-ylcarbonyl)piperazin-1-yl)-1-(1-(4-(trifluoromethyl)pyridin-2-yl)-1H-indol-5-yl)pyrrolidin-2-one] | 100
